{"source": "patent US9416145B2", "about": "“Compositions and methods for inhibiting activity of hypoxia-inducible transcription factor complex and its use for treatment of tumors” (priority 2012, dated 2016)", "key": {"[1]": {"system": "VEGF mRNA in MCF7 cells", "assay": "Real-time quantitative RT-PCR of VEGF mRNA in MCF7 cells", "assay_type": "cell-based, human", "conditions": "hypoxic MCF7 cells, 200 nM and 600 nM", "description": "We used real-time quantitative RT-PCR assays to determine the relative levels of VEGF mRNA in hypoxic cells treated with ETP compounds and control DKP compound. In parallel, cells treated with vehicle were used as controls. mRNA level of β-glucuronidase gene was used as a control in determining the relative levels of transcription.\nMCF7 cells were maintained in RPMI-1640 media (Sigma) supplemented with 10% fetal bovine serum (Irvine Scientific). Cells were plated in 6-well dishes at a density of 2.4×10^5 cells/well using 2 mL of a 1.2×10^5 cell/mL suspension. […] After a 6 h incubation period at 37° C. in a humidified atmosphere with 5% CO2, hypoxia was induced by adding desferrioxamine mesylate (DFO, Sigma) to a final concentration of 300 μM and incubating cells for another 18 hours. Cells were washed twice with ice cold PBS and lysed immediately. Total RNA was isolated with RNeasy kit (Qiagen) according to the manufacturer's instructions and quantified by UV absorbance. The isolated RNA was further treated with DNase I (Ambion, DNAfree kit) to remove any remaining genomic DNA. Reverse transcription was performed with Powerscript II Reverse Transcriptase (Clontech) as recommended by the manufacturer.\nQuantitative Reverse Transcript PCR (qRT-PCR) was employed to determine the effect of ETP compounds on VEGF and GLUT1 genes in HeLa cells both under normoxic and hypoxic conditions. For VEGF analysis, the forward primer 5′-AGGCCAGCACATAGGAGAGA-3′ and reverse primer 5′-TTTCCCTTTCCTCGAACTGA-3′ were used to amplify a 104-bp fragment from the 3′-translated region of the gene. For GLUT1 (SLC2A1) analysis we utilized the following sequences to yield a product of 179 bp: forward sequence 5′-TAGAAACATGGTTTTGAAATGC-3′, reverse sequence 5′-GGTAACAGGGATCAAACAGATT-3′. RNA levels were standardized by quantification of the β-glucuronidase as housekeeping gene. […] Data were analyzed with Applied Biosystems Sequence Detection System, version 1.2. […]"}, "[2]": {"system": "Glut1 mRNA in A549 cells", "assay": "qRT-PCR of Glut1 mRNA in A549 cells", "assay_type": "cell-based", "conditions": "300 μM DFO", "description": "FIG. 13 mRNA levels of three HIF1α inducible genes: VEGF, c-Met and Glut1 in A549 cells after treatment with LS72. Data from qRT-PCR experiments showing mRNA levels of three HIF1α inducible genes, VEGF, c-Met and Glut1 in A549 after treatment of the cells in a medium with 0.2% serum with LS72 (400 nM). Hypoxia was induced 300 μM by DFO. Error bars are ±s.e.m for the experiments performed in […]. Error bars are ±s.e.m. of experiments performed in triplicate. ***P<0.001, ** P<0.01, t test.\nFIG. 17 qRT-PCR data for Glut1mRNA in 85% confluent A549 cells treated with LS72 at three different concentrations. qRT-PCR assays were performed in order to determine the mRNA levels for Glut1 in A549 cell line treated with LS72 at concentrations: 100 nM, 400 nM, 1600 nM. Hypoxia was induced with DFO (300 μM). Error bars are ±sem for the experiments performed in triplicate. Error bars are ±s.e.m. of experiments performed in triplicate. *** P<0.001, ** P<0.01, t test.\nAfter tests with various serum levels in the media and hypoxia induction methods, the conditions that worked remarkably and consistently well for the induction of HIF1α dependent genes were to keep A549 cells in 2% serum followed by treating cells with compound or control in the media with 0.2% serum for 48 h (FIG. 13). […]"}, "[3]": {"system": "LOX mRNA in A549 cells", "assay": "qRT-PCR of LOX mRNA in A549 cells", "assay_type": "cell-based", "conditions": "A549, LS72 400 nM, hypoxia bag 48 h", "description": "FIGS. 14 (A) qRT-PCR data for LOX and (B) CXCR4 genes in A549 cells treated with LS72. Hypoxia was induced by hypoxia bag. Cells were maintained in F-12K medium with 2% serum. After reaching 65% confluency the cells were grown in serum free media and treated with LS72 (400 nM). Hypoxia was induced with DFO (300 μM) for 48 h. Error bars are s.e.m. of experiments performed in triplicate. **P<0.01, t test.\nAfter tests with various serum levels in the media and hypoxia induction methods, the conditions that worked remarkably and consistently well for the induction of HIF1α dependent genes were to keep A549 cells in 2% serum followed by treating cells with compound or control in the media with 0.2% serum for 48 h (FIG. 13). Under these conditions while hypoxia bag was the best option for induction of the LOX gene, the best hypoxic response leading to upregulation of many other HIF1α inducible genes was treatment with 300 μM DFO."}, "[4]": {"molecular_target": "T1, GST-tagged CH1 domain of human p300 (aa residues 323-423) (Homo sapiens, UniProt Q09472)", "T1 construct": "CH1 domain of human p300 (aa residues 323-423)", "T1 sequence (Q09472 323-423)": "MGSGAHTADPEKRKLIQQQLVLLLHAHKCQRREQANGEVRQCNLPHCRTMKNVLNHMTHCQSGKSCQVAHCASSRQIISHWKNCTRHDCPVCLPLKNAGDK", "assay": "SPR direct binding to immobilized GST-CH1-p300", "design": "direct binding to GST-CH1-p300 (in words): dose or concentration left out as unconfirmed", "source_text": "Prior to undertaking more rigorous biophysical and biological characterization of dimeric ETPs LS69 and LS72, it was important to first characterize its thermodynamic binding properties toward the target, p300 CH1 domain. We conducted SPR experiments in the presence of DTT to mimic the reducing environment that would be found in the intracellular milieu. From the SPR sensorgrams it is clear that both LS69 and LS72 bind directly to the GST-tagged CH1 domain of human p300 (aa residues 323-423) with high affinity."}, "[5]": {"assay": "MTT cytotoxicity assay in MCF7 cells", "assay_type": "cell-based", "conditions": "human, MCF7, 24 h treatment", "description": "FIG. 10 MTT cytotoxicity assay for LS72 in MCF7 cells. Cells were maintained in RPMI-1640 media supplemented with 10% FBS. Cells were treated with different concentrations of LS72 for 24 hours and the amount of purple formazan formed was determined via spectrophotometry.\nBased on this EC50 value of LS72 in MCF7 cells we chose to measure its effect on HIF inducible transcription at a maximum concentration of 400 nM in MCF7 cells. This is important in order to minimize the nonspecific effects on mRNA levels due to reduction in cell viability."}}, "data": [{"compound": "CN1C(=O)[C@]2(Cc3ccc(CCc4ccc(C[C@@]56SS[C@@](CO)(C(=O)N5C)N(C)C6=O)cc4)cc3)SS[C@@]1(CO)C(=O)N2C", "note": "(racemic) [LS72, 4,4′-((ethane-1,2-diylbis(4,1-phenylene))bis(methylene))bis(1-(hydroxymethyl)-5,7-dimethyl-2,3-dithia-5,7-diazabicyclo[2.2.2]octane-6,8-dione)]", "values": [{"measurement": "effect on VEGF mRNA level (in words)", "setting": "[1]", "value": "downregulated VEGF"}, {"measurement": "Glut1 hypoxic transcriptional up-regulation, dose response", "setting": "[2]; A549 85% confluent, 100 nM, 400 nM, 1600 nM", "value": "dose dependent decrease"}, {"measurement": "reduction of Glut1 mRNA levels", "setting": "[2]; A549, LS72 400 nM, 0.2% serum, 48 h", "value": "more than 60%"}, {"measurement": "LOX transcriptional activity (in words)", "setting": "[3]", "value": "significant downregulation in the transcriptional activity"}, {"measurement": "direct binding to GST-CH1-p300 (in words)", "setting": "[4]", "value": "bind directly"}, {"measurement": "kon", "setting": "[4]; in the presence of DTT, read-out: rate of association (ka)", "value": 4250, "unit": "M⁻¹ s⁻¹"}, {"measurement": "Kd", "setting": "[4]; off rate/on rate, read-out: binding constant KD", "value": 3.62, "unit": "µM"}, {"measurement": "EC50 at 24 h", "setting": "[5]", "value": 0.547, "unit": "µM"}]}]}
